Drawing on paper doi:10.1101/277434v2 (biorxiv, 2024), this text covers IC50 for one compound.

This experiment has as its target IRAK4 (Homo sapiens, UniProt Q9NWZ3). Description: biochemical.

Broadly, the IC50 is the point on the concentration scale where inhibition reaches its midpoint. Lower therefore signals greater potency in that assay.

The structures appear in SMILES notation.

IRAK4, sequence (Q9NWZ3 whole entry): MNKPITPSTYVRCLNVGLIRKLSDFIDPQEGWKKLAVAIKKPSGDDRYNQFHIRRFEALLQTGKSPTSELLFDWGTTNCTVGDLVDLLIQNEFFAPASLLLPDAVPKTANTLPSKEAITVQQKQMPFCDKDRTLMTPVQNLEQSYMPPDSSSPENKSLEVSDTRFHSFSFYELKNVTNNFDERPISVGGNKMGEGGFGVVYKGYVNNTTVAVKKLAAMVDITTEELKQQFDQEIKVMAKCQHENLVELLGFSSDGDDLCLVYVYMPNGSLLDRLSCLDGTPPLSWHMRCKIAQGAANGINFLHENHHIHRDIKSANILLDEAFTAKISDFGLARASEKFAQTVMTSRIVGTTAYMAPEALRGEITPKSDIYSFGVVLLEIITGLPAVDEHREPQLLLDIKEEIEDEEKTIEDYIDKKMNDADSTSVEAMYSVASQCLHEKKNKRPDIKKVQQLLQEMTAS

The compound `CN(C)C` [TMA] came in with an IC50 of 3.4 µM.
